This note sets out measurements from ChEMBL document CHEMBL1129906, “Synthesis and binding affinity of new muscarinic ligands structurally related to oxotremorine” (Bioorg Med Chem Lett, 1997).

The target of assay [1] is T1, Muscarinic acetylcholine receptor M2 (Rattus norvegicus, UniProt P10980).
T1 sequence (P10980 whole entry): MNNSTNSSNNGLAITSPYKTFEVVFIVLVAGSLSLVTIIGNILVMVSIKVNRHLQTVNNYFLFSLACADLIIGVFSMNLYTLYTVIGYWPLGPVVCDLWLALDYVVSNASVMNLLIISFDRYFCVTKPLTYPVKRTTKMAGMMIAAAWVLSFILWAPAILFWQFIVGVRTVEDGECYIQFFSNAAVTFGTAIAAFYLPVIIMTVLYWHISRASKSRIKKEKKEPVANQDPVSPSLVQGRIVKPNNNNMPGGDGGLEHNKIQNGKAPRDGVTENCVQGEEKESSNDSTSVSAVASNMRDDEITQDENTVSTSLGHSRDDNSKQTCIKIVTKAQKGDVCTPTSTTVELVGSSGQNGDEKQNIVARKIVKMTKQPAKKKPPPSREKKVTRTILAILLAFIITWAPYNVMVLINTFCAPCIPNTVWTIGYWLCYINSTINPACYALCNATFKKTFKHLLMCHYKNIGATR
Put plainly: Muscarinic receptor M2 in rat heart using [3H]QNB (quinuclidinyl benzylate) radioligand as a M2 non-selective muscarinic receptor antagonist at a concentration of 0.12 nM.

Assay [2] deals with T1, Muscarinic acetylcholine receptor M2. Put plainly: Binding affinity against Muscarinic receptor M2 in rat brain using [3H]QNB (quinuclidinyl benzylate) radioligand at a concentration of 0.12 nM. Type of assay: tissue-based.
The target in assay [3] is T2, Muscarinic acetylcholine receptor M1 (Rattus norvegicus, UniProt P08482).
T2 sequence (P08482 whole entry): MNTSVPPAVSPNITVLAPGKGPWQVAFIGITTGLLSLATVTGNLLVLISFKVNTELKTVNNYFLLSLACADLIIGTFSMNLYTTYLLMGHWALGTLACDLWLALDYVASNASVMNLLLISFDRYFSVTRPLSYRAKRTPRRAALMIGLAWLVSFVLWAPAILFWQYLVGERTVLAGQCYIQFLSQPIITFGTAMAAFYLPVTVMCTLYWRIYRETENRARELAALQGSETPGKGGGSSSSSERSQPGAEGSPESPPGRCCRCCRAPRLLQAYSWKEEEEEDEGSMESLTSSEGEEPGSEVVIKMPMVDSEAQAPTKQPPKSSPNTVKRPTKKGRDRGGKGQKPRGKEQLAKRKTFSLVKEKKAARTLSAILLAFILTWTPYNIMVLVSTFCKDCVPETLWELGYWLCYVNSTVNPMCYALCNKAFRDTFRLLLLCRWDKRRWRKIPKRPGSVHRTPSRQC
Put plainly: Binding affinity against Muscarinic receptor M1 in rat brain using [3H]-PZ (pirenzepine) radioligand at a concentration of 1 nM. It is filed as tissue-based.

In assay [4] the target is Muscarinic acetylcholine receptor. The assay is described as follows: Compound was assessed for the binding affinity against muscarinic receptor subtypes in rat brain using [3H]OXO-M radioligand as a muscarinic receptor agonist at a concentration of 0.2 nM. Type of assay: tissue-based.
Assay [5] can be described thus: Selectivity for was determined by the displacement of [3H]PZ in rat brain preparations; expressed as ratio of M1/M2. It is filed as tissue-based. Background: In a radioligand displacement assay an active substance lowers the binding of a labelled ligand.

Usually IC50 stands for the concentration needed to halve the response being measured. A low value points to greater potency.

As to `C(#CCN1CCCC1)COC1=NOCC1`, the IC50 came out at 233 nM in assay [1], 8600 nM in assay [2], 412 nM in assay [3] and 4 nM in assay [4].
On to `O=C1CCCN1CC#CCN1CCCC1` [OXOTREMORINE], for which the 50% inhibitory concentration (IC50) in assay [1] was found to be 84 nM; in assay [2] it was 2000 nM; in assay [3], 100 nM; in assay [4], 2 nM.
Turning to `C[N+](C)(C)CC#CCN1OCCC1=O`, the Selectivity ratio in assay [5] came out at 140. Also, the half-maximal inhibitory concentration (IC50) turned out to be 74 nM in assay [1], 17400 nM in assay [2], 1300 nM in assay [3] and 0.8 nM in assay [4].
For the compound `CN(C)CC#CCN1OCCC1=O`, the Selectivity ratio in assay [5] amounted to 41.2. Further, the half-maximal inhibitory concentration (IC50) in assay [1] was found to be 1380 nM; in assay [2], 101000 nM; in assay [3], 7100 nM; in assay [4], 23 nM.
In the case of `O=C1CCON1CC#CCN1CCCC1`, the half-inhibitory concentration (IC50) was determined as 215 nM in assay [1], 2800 nM in assay [2], 78 nM in assay [3] and 1.6 nM in assay [4].
